Experimental data reported in ChEMBL document CHEMBL5550189, “Discovery of GS-7682, a Novel 4'-Cyano-Modified C-Nucleoside Prodrug with Broad Activity against Pneumo- and Picornaviruses and Efficacy in RSV-Infected African Green Monkeys” (J Med Chem, 2024).

Tests used:
[1] = system: Respiratory syncytial virus; test: Antiviral activity against RSV A2 infected in Normal human bronchial epithelial cells incubated for 3 days by ONE-Glo luciferase assay; type: functional, organism-based; conditions: A2, Epithelial cell, 72 h
[2] = system: Respiratory syncytial virus; test: Antiviral activity against RSV A2 infected in human HEp-2 cells incubated for 4 days by Cell Titer Glo assay; type: functional, organism-based; conditions: A2, HEp-2, 96 h
[3] = Cytotoxicity against human Hep-2 cells incubated for 4 to 5 days by Cell Titer Glo assay; type: toxicity, cell-based; conditions: time 4-5 day
[4] = Distribution coefficient, log D of compound measured after 30 mins by HPLC/UV analysis; type: physicochemical; conditions: octanol/water
[5] = Cytotoxicity against Normal human bronchial epithelial cells; type: toxicity, cell-based, Epithelial cell
[6] = Selectivity index, ratio of CC50 for Normal human bronchial epithelial cells to EC50 for RSV A2 infected in Normal human bronchial epithelial cells; type: toxicity; conditions: read-out: Ratio CC50/EC50
[7] = system: Respiratory syncytial virus; test: (§1) Antiviral activity against RSV A2 infected in human airway epithelium transwell culture assessed as decrease in viral RNA level by measuring log10 reduction in median viral load at 0.01 uM pretreated at apical side for 3 hrs followed by compound washout and subsequent viral infection at apical side for 3 hrs followed by removal of virus and recurrent addition of compound on day 1 and 2 at basolateral side measured on day 3 by RT-qPCR analysis; type: functional; conditions: time 75 hrs
[8] = system: Respiratory syncytial virus; test: as §1, with “0.05” for “0.01”; type: functional; conditions: time 75 hrs
[9] = system: Respiratory syncytial virus; test: as §1, with “0.25” for “0.01”; type: functional; conditions: time 75 hrs
[10] = system: Respiratory syncytial virus; test: as §1, with “0.25” for “0.01”, “0” for “1 and 2”, “apical” for “basolateral”; type: functional; conditions: time 75 hrs
[11] = Cytotoxicity against rhesus monkey LLC-MK2 cells incubated for 5 days by MTS assay; type: toxicity, cell-based, Macaca mulatta; conditions: time 5 day
enterovirus D68 = test: Anti-viral activity against EV-D68 (18952) infected in human RD cells by MTS assay; type: functional, organism-based; conditions: Enterovirus D, 18952, RD
[12] = Cytotoxicity against human RD cells by MTS assay; type: toxicity, cell-based
[13] = Cytotoxicity against MDCK cells by MTS assay; type: toxicity, cell-based, Canis lupus familiaris; conditions: dog
SARS-CoV-2 = test: Anti-viral activity against SARS-CoV-2 infected in human A549 cells expressing hACE2 by firefly reporter assay; type: functional, organism-based; conditions: Severe acute respiratory syndrome coronavirus 2, A549
[14] = Cytotoxicity against human A549 cells expressing hACE2 incubated for 28 hrs by Cell Titer Glo assay; type: toxicity, cell-based
[15] = system: Respiratory syncytial virus; test: Antiviral activity against Fluc-fused RSV A2 infected in D-HBE-COPD cells incubated for 3 days by ONE Glo luciferase assay; type: functional, organism-based; conditions: human respiratory syncytial virus, 72 h
[16] = Prodrug conversion in D-HBE-As cells assessed as ((2R,3S,4R,5S)-5-(4-aminopyrrolo[2,1-f][1,2,4]triazin-7-yl)-2-cyano-3,4-dihydroxytetrahydrofuran-2-yl)methyl tetrahydrogen triphosphate formation measured per million cells at 1 uM measured after 48 hrs by LC-MS/MS analysis; type: ADME, cell-based; conditions: human
[17] = system: Respiratory syncytial virus; test: Antiviral activity against RSV A2 infected in Normal human bronchial epithelial cells assessed as inhibition of intracellular virus replication; type: functional, organism-based; conditions: A2, Epithelial cell
[18] = system: Respiratory syncytial virus; test: Antiviral activity against RSV A2 infected in D-HBE-COPD cells assessed as inhibition of intracellular virus replication; type: functional, organism-based; conditions: human respiratory syncytial virus
[19] = system: Respiratory syncytial virus; test: Antiviral activity against RSV A2 infected in H1-HeLa cells assessed as inhibition of intracellular virus replication; type: functional, organism-based; conditions: human respiratory syncytial virus
[20] = Drug metabolism in Cynomolgous monkey assessed as half life of (2R,3S,4R,5S)-5-(4-aminopyrrolo[2,1-f][1,2,4]triazin-7-yl)-3,4-dihydroxy-2-(hydroxymethyl)tetrahydrofuran-2-carbonitrile metabolite at 5 mg/kg, iv measured after 30 mins by LC-MS/MS analysis; type: ADME, organism-based, Macaca fascicularis; conditions: cynomolgus monkey, in vivo, 0.5 h
[21] = Drug metabolism in Cynomolgous monkey assessed as AUC (0 to 24 hrs) of (2R,3S,4R,5S)-5-(4-aminopyrrolo[2,1-f][1,2,4]triazin-7-yl)-3,4-dihydroxy-2-(hydroxymethyl)tetrahydrofuran-2-carbonitrile metabolite at 5 mg/kg, iv measured after 30 mins by LC-MS/MS analysis; type: ADME, organism-based, Macaca fascicularis; conditions: cynomolgus monkey, in vivo, 0.5 h
[22] = Half life in Cynomolgous monkey at lung-deposited dose of 4 mg/kg, IT measured after 24 hrs by LC-MS/MS analysis; type: ADME, organism-based, Macaca fascicularis; conditions: cynomolgus monkey, in vivo
[23] = Cmax in Cynomolgous monkey at lung-deposited dose of 4 mg/kg, IT measured after 24 hrs by LC-MS/MS analysis; type: ADME, organism-based, Macaca fascicularis; conditions: cynomolgus monkey, in vivo
[24] = Drug metabolism in Cynomolgous monkey assessed as AUC (0 to 24 hrs) of (2R,3S,4R,5S)-5-(4-aminopyrrolo[2,1-f][1,2,4]triazin-7-yl)-3,4-dihydroxy-2-(hydroxymethyl)tetrahydrofuran-2-carbonitrile metabolite at lung-deposited dose of 4 mg/kg, IT measured after 24 hrs by LC-MS/MS analysis; type: ADME, organism-based, Macaca fascicularis; conditions: cynomolgus monkey, in vivo, other
[25] = Cmax in African green monkey at lung-deposited dose of 5.9 mg/kg, IT measured after 24 hrs by LC-MS/MS analysis; type: ADME, organism-based; conditions: chlorocebus aethiops, in vivo
[26] = AUC (0 to 24 hrs) in African green monkey at lung-deposited dose of 5.9 mg/kg, IT measured after 24 hrs by LC-MS/MS analysis; type: ADME, organism-based; conditions: chlorocebus aethiops, in vivo
[27] = Drug metabolism in African green monkey assessed as Cmax of (2R,3S,4R,5S)-5-(4-aminopyrrolo[2,1-f][1,2,4]triazin-7-yl)-3,4-dihydroxy-2-(hydroxymethyl)tetrahydrofuran-2-carbonitrile metabolite at lung-deposited dose of 5.9 mg/kg, IT measured after 24 hrs by LC-MS/MS analysis; type: ADME, organism-based; conditions: chlorocebus aethiops, in vivo, other
[28] = Drug metabolism in African green monkey assessed as AUC (0 to 24 hrs) of (2R,3S,4R,5S)-5-(4-aminopyrrolo[2,1-f][1,2,4]triazin-7-yl)-3,4-dihydroxy-2-(hydroxymethyl)tetrahydrofuran-2-carbonitrile metabolite at lung-deposited dose of 5.9 mg/kg, IT measured after 24 hrs by LC-MS/MS analysis; type: ADME, organism-based; conditions: chlorocebus aethiops, in vivo, other
[29] = system: Respiratory syncytial virus; test: Antiviral activity against RSV infected in African green monkey assessed as log10 reduction in viral load in BAL at lung-deposited dose of 1.6 to 7.6 mg/kg, IT qd measured after 5 days by RT-qPCR analysis; type: functional; conditions: dose 1.6-7.6 mg/kg, time 5 day
[30] = system: Respiratory syncytial virus; test: Antiviral activity against RSV infected in African green monkey assessed as reduction in viral replication in BAL at lung-deposited dose of 1.6 to 7.6 mg/kg, IT qd for 6 days measured for 15 days by RT-qPCR analysis relative to control; type: functional; parameters: scale not given: the % may be the effect or the level left; conditions: dose 1.6-7.6 mg/kg, time 15 day, at 1.6 to 7.6 mg/kg

COC(=O)[C@H](C)N[P@](=O)(OC[C@@]1(C#N)O[C@@H](c2ccc3c(N)ncnn23)[C@H](OC(=O)C(C)C)[C@@H]1OC(=O)C(C)C)Oc1ccccc1
EC50 [1]: 15 nM
EC50 [2]: 46 nM
CC50 [3]: 22700 nM
logD at 0.5 h [4]: 3
CC50 [5]: 8300 nM
selectivity ratio [6]: 640
Activity [7]: 0.2 log10/ml
Activity [8]: 0.5 log10/ml
Activity [9]: 2.5 log10/ml
Activity [10]: 1.9 log10/ml
CC50 at 120 h [11]: > 2000 nM
EC50 (enterovirus D68): 90 nM
CC50 [12]: > 2000 nM
CC50 [13]: > 2000 nM
EC50 (SARS-CoV-2): 4750 nM
CC50 at 28 h [14]: 21100 nM
EC50 [15]: < 7 nM
Drug metabolism [16]: 113.3 pM
IC50 [17]: < 38 nM
IC50 [18]: < 85 nM
IC50 [19]: 84 nM
t1/2 [20]: 8.71 h
AUC [21]: 6.03 µM·h
half-life [22]: 13 h
Cmax [23]: 620 nM
AUC [24]: 2.55 µM·h
Cmax [25]: 610 nM
AUC(0-t) at 24 h [26]: 1.74 µM·h
Cmax [27]: 220 nM
AUC [28]: 3.39 µM·h
Activity [29]: 3.6 log10/ml
Activity [30]: >99.99%
